From publication PMC3056842 (Malaria Journal, 2011)
Where “and” joins values, the source holds several entries; their conditions need not be identical. Equal values may be shown once. Entries after “also recorded” stand apart in the source; their conditions may differ.

Experiments:
Plasmodium falciparum [1] = conditions: sigmoid Emax pharmacodynamic model of PCT; cited from earlier work
[2] = set-up: species or system human; conditions: in vivo
Procedure: To determine if women met the eligibility criteria, a complete medical history and physical examination was performed by a study physician; sociodemographic data was collected by a study nurse. Haematocrit was measured using a microhaematocrit centrifuge (Hawksley Haematospin 1400, Hawksley & Sons, Ltd, UK). Thick and thin blood films were stained with Giemsa and then read to determine parasite species and the density of P. falciparum asexual stages. […] Human Immunodeficiency Virus (HIV) serology was determined using the Determine 1/2 HIV Test Kit (Inverness Medical Professional Diagnostics, Princeton, NJ). Liver function was assessed by measuring aspartate aminotransferase (AST) and alanine aminotransferase (ALT) in plasmaPiccolo Portable Chemistry Analyser, Abaxis, USA). Alpha-1-Acid glycoprotein was determined in serum samples using radial immunodiffusion (Kent Laboratories, Bellingham, WA, USA).

clinical = conditions: for CL/F: DHA CL/F; for fraction unbound: DHA FF (free fraction); for Tmax: DHA Tmax; for half-life: DHA T½; for Vd/F: DHA Vd/F
Procedure: The four tablets were given orally with 240 mL water under medical supervision. A catheter was inserted into a forearm vein for pharmacokinetic sample collection and flushed after each blood draw with saline solution. […] Blood for malaria smears were taken by finger prick at pre-dose and at 12, 24, 30, 36, 42 and 48 hours post-dose. Malaria smears were also performed on days 7, 14 and 28.
The persistence of malaria infection and adverse events were tracked for 28 days after SP administration. Babies born from the pregnant women cohort were followed until one year of age and development assessed.
The reconstituted extracts were chromatographed isocratically and the compounds detected and quantified by mass spectroscopy.
Concentrations below the lower limit of quantification were assigned a value of zero.
The ratio of the AUC during pregnancy to the AUC at postpartum (after log transformation) was considered a measure of the impact of pregnancy on systemic exposure. […] The "no effect" interval was selected based on the dose-ranging study by Angus and coworkers. […] Statistical analyses were performed using SAS/STAT software, version 9.2 (SAS Institute, Inc., Cary, NC, 2008). […] Spearman correlations were used to look for associations among the pregnant and control population. All p-values were 2-sided.

Plasmodium falciparum [3] = test: Pharmacodynamics of AS: parasitaemia on malaria smears after dosing; assay type: in vivo; conditions: for Parasitaemic - n (%) / Parasite density (where > 0): 12 hours after 200 mg oral AS
Procedure: To determine if women met the eligibility criteria, a complete medical history and physical examination was performed by a study physician; sociodemographic data was collected by a study nurse. Haematocrit was measured using a microhaematocrit centrifuge (Hawksley Haematospin 1400, Hawksley & Sons, Ltd, UK). Thick and thin blood films were stained with Giemsa and then read to determine parasite species and the density of P. falciparum asexual stages. Parasite density, based on examination of at least 200 high-power microscope fields, was calculated as (# trophozoites/#white blood cells)*6000. Human Immunodeficiency Virus (HIV) serology was determined using the Determine 1/2 HIV Test Kit (Inverness Medical Professional Diagnostics, Princeton, NJ). Liver function was assessed by measuring aspartate aminotransferase (AST) and alanine aminotransferase (ALT) in plasmaPiccolo Portable Chemistry Analyser, Abaxis, USA). Alpha-1-Acid glycoprotein was determined in serum samples using radial immunodiffusion (Kent Laboratories, Bellingham, WA, USA). […]

[4] = artesunate 4 mg/kg with Malarone, final day of three day course; second and third trimester pregnant women, Thailand; 90% range 0.9-60.7; cited from earlier work
[5] = female, human, plasma, po, 200 mg, 200 mg oral AS, ante-partum pregnant cases, median [range]
[6] = female, human, plasma, po, 200 mg, 200 mg oral AS, non-pregnant controls, median [range]
[7] = female, human, plasma, po, 200 mg, 200 mg oral AS, post-partum (3 months), median [range]

In the case of C[C@H]1[C@H](OC(=O)CCC(=O)O)O[C@@H]2O[C@@]3(C)CC[C@H]4[C@H](C)CC[C@@H]1[C@@]24OO3 [AS, artesunate], the Hill slope coefficient (Plasmodium falciparum [1]) is listed as 10, the “infant development at one year of age” value [2] is listed as “normal physical and neurological development” and the pregnancy outcome [2] is listed as “singleton live births”. For the same compound, the “range of AS AUCs among the subjects” value (clinical; female, human, in vivo, po, 200 mg) was “more than 17 fold”, the AUC (clinical; female, human, in vivo, po, 200 mg, median AS AUC) was 0.205 µg·h/mL and the “aparasitaemic at 12 hours among those parasitaemic at t = 0” value (Plasmodium falciparum [3]; 200 mg oral AS, 13 of the 14 non-pregnant controls) was 93%. The “aparasitaemic at 12 hrs among those parasitaemic at t = 0” value (Plasmodium falciparum [3]; 200 mg oral AS, 21 of the 24 pregnant women) was 87.5%, the “Parasitaemic - n (%)” value (Plasmodium falciparum [3]; all pregnant cases, N 26) was 3 (11.5) and the “Parasite density (where > 0)” value (Plasmodium falciparum [3]; all pregnant cases, median (interquartile range)) was 87 (44 - 286) parasites/μL. For the same compound, the “Parasitaemic - n (%)” value (Plasmodium falciparum [3]; non-pregnant controls, N 25) was 1 (4.0), the “Parasite density (where > 0)” value (Plasmodium falciparum [3]; non-pregnant controls, median) was 24 -- parasites/μL and the “Parasitaemic - n (%)” value (Plasmodium falciparum [3]; pregnant cases Window 1 (22-26 wks GA), N 13) was 3 (23.1). The “Parasite density (where > 0)” value (Plasmodium falciparum [3]; pregnant cases Window 1, median (interquartile range)) was 87 (44 - 286) parasites/μL, the “Parasitaemic - n (%)” value (Plasmodium falciparum [3]; pregnant cases Window 2 (32-36 wks GA), N 13) was 0 (0) and the “efficacy (in words)” value (Plasmodium falciparum [3]; single 200 mg oral dose of AS, second and third trimester pregnant women) was “effective; also recorded: rapid clearance of parasitaemia”.

In the case of C[C@H]1[C@@H](O)O[C@@H]2O[C@@]3(C)CC[C@H]4[C@H](C)CC[C@@H]1[C@@]24OO3 [DHA, dihydroartemisinin], the “median DHA Vd/F” value [4] is listed as 3.4 L/kg, the “median free AUC for DHA in pregnant women as percentage of non-pregnant controls” value (clinical; 200 mg oral AS) is listed as 79% and the “median total AUC for DHA in pregnant women as percentage of non-pregnant controls” value (clinical; 200 mg oral AS) is listed as 62%. For the same compound, the “DHA AUCall” value (clinical; 200 mg oral AS, ante-partum pregnant cases, median [range]) was 1730.5 [1034.7 - 4085.5] ng*h/mL, the “DHA T½” value (clinical; 200 mg oral AS, non-pregnant controls, median [range]) was 1.41 [0.86 - 6.55] h and the AUC (clinical; female, human, plasma, po, 200 mg, DHA AUCall, 200 mg oral AS, ante-partum pregnant cases, median [range]) was 1.73 µg·h/mL. The AUC (clinical; female, human, plasma, po, 200 mg, DHA AUCall, 200 mg oral AS, non-pregnant controls, median [range]) was 2.79 µg·h/mL, the AUC (clinical; female, human, plasma, po, 200 mg, DHA AUCall, 200 mg oral AS, post-partum (3 months), median [range]) was 2.12 µg·h/mL and the CL/F (clinical; [5]) was 1.39 L/h/kg. It also gave a CL/F (clinical; [6]) of 1.07 L/h/kg, a CL/F (clinical; [7]) of 1.26 L/h/kg and a Cmax (clinical; female, human, plasma, po, 200 mg, DHA Cmax, 200 mg oral AS, ante-partum pregnant cases, median [range]) of 0.905 µg/mL. The Cmax (clinical; female, human, plasma, po, 200 mg, DHA Cmax, 200 mg oral AS, non-pregnant controls, median [range]) was 1.28 µg/mL, the Cmax (clinical; female, human, plasma, po, 200 mg, DHA Cmax, 200 mg oral AS, post-partum (3 months), median [range]) was 0.98 µg/mL and the fraction unbound (clinical; [5]) was 0.21. It also gave a fraction unbound (clinical; [6]) of 0.18, a fraction unbound (clinical; [7]) of 0.19 and a Tmax (clinical; [5]) of 1.5 h. The Tmax (clinical; [6]) was 1.52 h, the Tmax (clinical; [7]) was 1.5 h and the half-life (clinical; [5]) was 1.28 h. For the same compound, the half-life (clinical; [7]) was 1.63 h, the Vd/F (clinical; [5]) was 157 L and 2.84 L/kg and the Vd/F (clinical; [6]) was 128 L and 2.45 L/kg. For the same compound, the Vd/F (clinical; [7]) was 158 L and 3 L/kg, the Cmax (clinical; female, human, plasma, po, 200 mg, median DHA Cmax, 200 mg oral AS, non-pregnant control group) was 1.28 µg/mL and the Cmax (clinical; female, human, plasma, po, 200 mg, median DHA Cmax, 200 mg oral AS, pregnant group) was 0.905 µg/mL.
